Experimental data published in patent publication US8445510B2, “Fused bicyclic kinase inhibitors” (OSI Pharmaceuticals, LLC, priority 2011, dated 2013).

What was measured:
Assay type in all cases: cell-based
[1] = molecular target: c-MET (Homo sapiens, UniProt P08581); test: MET cell mechanistic assay (MKN45), phosphorylated MET ELISA; settings: MKN45 cell line; inhibition of phosphorylated MET; 4 hours incubation; at least duplicate experiments; read-out: MET mech IC50
Experimental: The cellular activity of the compounds of the present invention against c-MET may be determined by the following procedure. MKN45 cells were plated in Falcon 3072 96-well plates in growth media (RPMI, 10% FBS, 1% L-glutamine) at a density of 5000 cells/well and incubated at 37° C., 5% CO2 overnight. The following day, one-tenth volume of a 10× concentration of compounds was added to the wells in a 6-point dilution series. The dilutions series was composed of an initial 1:5 dilution in DMSO, followed by a 1:10 dilution in growth media, for a final DMSO concentration on cells of 0.5%. Control wells were treated with 0.5% DMSO. The typical range of dilution was 10 μM to 3 nM. Once compound was added to the cells, plates were incubated for 4 hours at 37° C., 5% CO2. Plates were then washed in PBS, and lysed in triton-based lysis buffer. Lysates were transferred to a precoated capture plate made by Biosource (Cat # KHO0281). The phosphorylated MET levels were measured by incubating with a rabbit polyclonal antibody against phosphorylated MET ([pYpYpY1230/1234/1235]) followed by an anti-rabbit antibody conjugated to HRP. Signal was measured on a Wallac Victor plate reader at 450 nm. The DMSO signal of the control wells was defined as 100% and the percent of inhibition of phosphorylated MET was expressed as percent of control. IC50 values were determined from the percent of control data using a standard four-parameter model.
The IC50 values of exemplary compounds of the present invention determined in a MET cell mechanistic assay using the MKN45 cell line according to the procedures described herein in at least duplicate experiments are abbreviated as follows and are shown in Table 1: A, IC50≦0.05 μM; B, 0.05 μM<IC50≦0.2 μM; C, 0.2 μM<IC50≦1 μM; D, IC50>1 μM; ND, not determined. The Example # of Table 1 corresponds to the compound example number as illustrated in the Examples section.
Treatment of this cell line with a selective c-MET inhibitor led to induction of apoptosis and inhibition of proliferation, whereas non-MET-amplified cell lines were not affected [Smolen et al., Proc. Natl. Acad. Sci. USA, 103(7):2316-2321 (2006)]. This cell line is thus “driven” by c-MET, and antiproliferative effects correlate very well with the inhibition of c-MET phosphorylation so that the cell proliferation IC50, values can be used as surrogate for the c-MET cell mechanistic IC50, values. Under the assay conditions described herein, the IC50 values correlate nearly 1:1.

[2] = system: MKN45 cells; test: MKN45 cell proliferation assay (CellTiter-Glo); settings: Homo sapiens, MKN-45, 72 h; MKN45 cell line; 3 days incubation; at least duplicate experiments; read-out: Prolif. IC50
[3] = system: Karpas-299 cells; test: Karpas-299 cell proliferation assay (CellTiter-Glo); settings: Homo sapiens, 72 h; Karpas-299 cell line (NPM-ALK); 3 days incubation; at least duplicate experiments; read-out: Prolif. IC50

Chain of c-MET (P08581 25-1390): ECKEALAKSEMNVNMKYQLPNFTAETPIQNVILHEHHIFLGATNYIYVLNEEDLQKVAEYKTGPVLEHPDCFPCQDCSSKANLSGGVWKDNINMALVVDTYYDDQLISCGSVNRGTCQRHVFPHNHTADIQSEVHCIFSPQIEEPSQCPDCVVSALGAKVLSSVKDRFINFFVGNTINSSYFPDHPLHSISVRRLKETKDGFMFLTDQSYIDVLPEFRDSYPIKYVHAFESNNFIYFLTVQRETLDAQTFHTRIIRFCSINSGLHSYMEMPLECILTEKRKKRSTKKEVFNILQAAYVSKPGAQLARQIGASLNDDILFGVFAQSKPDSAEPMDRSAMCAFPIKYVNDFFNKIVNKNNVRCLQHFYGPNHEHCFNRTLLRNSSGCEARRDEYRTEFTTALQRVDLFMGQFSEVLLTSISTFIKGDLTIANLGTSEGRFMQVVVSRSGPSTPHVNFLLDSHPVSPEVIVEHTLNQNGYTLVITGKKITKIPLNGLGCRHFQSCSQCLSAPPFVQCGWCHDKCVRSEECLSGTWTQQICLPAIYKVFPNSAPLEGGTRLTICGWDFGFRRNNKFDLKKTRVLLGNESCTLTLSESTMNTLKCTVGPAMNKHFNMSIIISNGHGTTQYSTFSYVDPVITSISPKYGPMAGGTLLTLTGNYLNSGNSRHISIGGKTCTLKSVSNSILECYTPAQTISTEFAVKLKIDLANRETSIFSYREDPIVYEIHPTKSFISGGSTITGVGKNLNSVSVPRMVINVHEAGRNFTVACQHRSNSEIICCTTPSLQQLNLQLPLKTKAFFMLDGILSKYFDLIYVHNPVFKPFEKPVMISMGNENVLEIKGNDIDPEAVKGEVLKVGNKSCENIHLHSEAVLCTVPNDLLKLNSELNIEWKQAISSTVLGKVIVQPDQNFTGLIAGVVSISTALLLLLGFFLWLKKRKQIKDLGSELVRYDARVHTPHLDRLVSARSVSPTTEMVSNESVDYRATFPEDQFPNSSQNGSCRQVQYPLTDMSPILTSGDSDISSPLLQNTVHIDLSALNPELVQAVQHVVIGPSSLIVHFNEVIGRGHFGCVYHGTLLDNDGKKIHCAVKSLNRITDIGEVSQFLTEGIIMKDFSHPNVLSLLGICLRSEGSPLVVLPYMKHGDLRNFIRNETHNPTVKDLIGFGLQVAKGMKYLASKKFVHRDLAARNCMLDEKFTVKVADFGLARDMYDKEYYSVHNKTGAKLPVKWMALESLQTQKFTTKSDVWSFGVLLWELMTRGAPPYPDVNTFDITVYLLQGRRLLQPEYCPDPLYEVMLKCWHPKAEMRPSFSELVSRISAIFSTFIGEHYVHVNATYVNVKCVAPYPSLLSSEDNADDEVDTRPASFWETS

IC50 [1]	IC50 [2]	IC50 [3]	SMILES
≤ 50 nM	≤ 50 nM	≤ 50 nM	COc1ccc(F)c(Cl)c1[C@@H](C)c1c[nH]c2ncc(-c3cnn([C@H]4CC[C@H](O)CC4)c3C)cc12 [Example 27, trans-4-(4-{3-[(1S)-1-(2-Chloro-3-fluoro-6-methoxyphenyl)ethyl]-1H-pyrrolo[2,3-b]pyridin-5-yl}-5-methyl-1H-pyrazol-1-yl)cyclohexanol]
≤ 50 nM	≤ 50 nM	≤ 50 nM	CC(=O)N1CCC(n2ncc(-c3cnc4[nH]cc([C@H](C)c5c(OC(F)F)ccc(F)c5Cl)c4c3)c2C)CC1 [Example 97, 1-{4-[4-(3-{(1S)-1-[2-Chloro-6-(difluoromethoxy)-3-fluorophenyl]ethyl}-1H-pyrrolo[2,3-b]pyridin-5-yl)-5-methyl-1H-pyrazol-1-yl]piperidin-1-yl}ethanone]
≤ 50 nM	≤ 50 nM	≤ 50 nM	C[C@H](c1c(OC(F)F)ccc(F)c1Cl)c1c[nH]c2ncc(-c3cnc([C@H]4CC[C@H](O)CC4)n3C)cc12 [Example 126, trans-4-[5-(3-{(1S)-1-[2-Chloro-6-(difluoromethoxy)-3-fluorophenyl]ethyl}-1H-pyrrolo[2,3-b]pyridin-5-yl)-1-methyl-1H-imidazol-2-yl]cyclohexanol]
≤ 50 nM	≤ 50 nM	50 to 200 nM	COc1nn([C@H]2CC[C@H](O)CC2)cc1-c1cnc2[nH]cc([C@H](C)c3c(OC(F)F)ccc(F)c3Cl)c2c1 [Example 100, trans-4-[4-(3-{(1S)-1-[2-chloro-6-(difluoromethoxy)-3-fluorophenyl]ethyl}-1H-pyrrolo[2,3-b]pyridin-5-yl)-3-methoxy-1H-pyrazol-1-yl]cyclohexanol]
≤ 50 nM	≤ 50 nM	≤ 50 nM	Cc1c(-c2cnc3[nH]cc([C@H](CF)c4c(OC(F)F)ccc(F)c4Cl)c3c2)cnn1[C@H]1CC[C@H](O)CC1 [Example 124, trans-4-[4-(3-{(1S)-1-[2-chloro-6-(difluoromethoxy)-3-fluorophenyl]-2-fluoroethyl}-1H-pyrrolo[2,3-b]pyridin-5-yl)-5-methyl-1H-pyrazol-1-yl]cyclohexanol]
	50 to 200 nM	50 to 200 nM	COc1ccc(F)c(Cl)c1[C@@H](C)c1c[nH]c2ncc(-c3c(CO)nn(C)c3C)cc12 [Example 51, (4-{3-[(1S)-1-(2-Chloro-3-fluoro-6-methoxyphenyl)ethyl]-1H-pyrrolo[2,3-b]pyridin-5-yl}-1,5-dimethyl-1H-pyrazol-3-yl)methanol]
	50 to 200 nM	50 to 200 nM	CCc1c(-c2cnc3[nH]cc([C@H](C)c4c(OC(F)F)ccc(F)c4Cl)c3c2)cnn1CC(C)(C)O [Example 72, 1-[4-(3-{(1S)-1-[2-Chloro-6-(difluoromethoxy)-3-fluorophenyl]ethyl}-1H-pyrrolo[2,3-b]pyridin-5-yl)-5-ethyl-1H-pyrazol-1-yl]-2-methylpropan-2-ol]
	≤ 50 nM	≤ 50 nM	COc1ccc(F)c(Cl)c1[C@@H](C)c1c[nH]c2ncc(-c3c(C)nn([C@H]4CC[C@H](O)CC4)c3C)cc12 [Example 6, trans-4-(4-{3-[(1S)-1-(2-Chloro-3-fluoro-6-methoxyphenyl)ethyl]-1H-pyrrolo[2,3-b]pyridin-5-yl}-3,5-dimethyl-1H-pyrazol-1-yl)cyclohexanol]
	≤ 50 nM	50 to 200 nM	CCc1nn(CC(C)(C)O)cc1-c1cnc2[nH]cc([C@H](C)c3c(OC(F)F)ccc(F)c3Cl)c2c1 [Example 73, 1-[4-(3-{(1S)-1-[2-Chloro-6-(difluoromethoxy)-3-fluorophenyl]ethyl}-1H-pyrrolo[2,3-b]pyridin-5-yl)-3-ethyl-1H-pyrazol-1-yl]-2-methylpropan-2-ol]
	≤ 50 nM	≤ 50 nM	CCc1c(-c2cnc3[nH]cc([C@H](C)c4c(OC(F)F)ccc(F)c4Cl)c3c2)cnn1[C@H]1CC[C@H](O)CC1 [Example 78, trans-4-[4-(3-{(1S)-1-[2-Chloro-6-(difluoromethoxy)-3-fluorophenyl]ethyl}-1H-pyrrolo[2,3-b]pyridin-5-yl)-5-ethyl-1H-pyrazol-1-yl]cyclohexanol]
	≤ 50 nM	50 to 200 nM	COc1ccc(F)c(Cl)c1[C@@H](C)c1c[nH]c2ncc(-c3cnn(C)c3N)cc12 [Example 38, 4-{3-[(1S)-1-(2-Chloro-3-fluoro-6-methoxyphenyl)ethyl]-1H-pyrrolo[2,3-b]pyridin-5-yl}-1-methyl-1H-pyrazol-5-amine]
	50 to 200 nM	200 to 1000 nM	COc1ccc(F)c(Cl)c1[C@@H](C)c1c[nH]c2ncc(-c3cncn3C)cc12 [Example 64, 3-[(1S)-1-(2-Chloro-3-fluoro-6-methoxyphenyl)ethyl]-5-(1-methyl-1H-imidazol-5-yl)-1H-pyrrolo[2,3-b]pyridine]
	≤ 50 nM	50 to 200 nM	CCc1nn([C@H]2CC[C@H](O)CC2)cc1-c1cnc2[nH]cc([C@H](C)c3c(OC(F)F)ccc(F)c3Cl)c2c1 [Example 77, trans-4-[4-(3-{(1S)-1-[2-Chloro-6-(difluoromethoxy)-3-fluorophenyl]ethyl}-1H-pyrrolo[2,3-b]pyridin-5-yl)-3-ethyl-1H-pyrazol-1-yl]cyclohexanol]
	≤ 50 nM	≤ 50 nM	[2H]C([2H])([2H])c1c(-c2cnc3[nH]cc([C@H](C)c4c(OC(F)F)ccc(F)c4Cl)c3c2)cnn1[C@H]1CC[C@H](O)CC1 [Example 85, trans-4-[4-(3-{(1S)-1-[2-Chloro-6-(difluoromethoxy)-3-fluorophenyl]ethyl}-1H-pyrrolo[2,3-b]pyridin-5-yl)-5-(^2H3)methyl-1H-pyrazol-1-yl]cyclohexanol]
	≤ 50 nM	≤ 50 nM	COc1ccc(F)c(Cl)c1[C@@H](C)c1c[nH]c2ncc(-c3cnn(C[C@H](O)CO)c3C)cc12 [Example 10, (2S)-3-(4-{3-[(1S)-1-(2-Chloro-3-fluoro-6-methoxyphenyl)ethyl]-1H-pyrrolo[2,3-b]pyridin-5-yl}-5-methyl-1H-pyrazol-1-yl)propane-1,2-diol]
	50 to 200 nM	200 to 1000 nM	CCc1c(-c2cnc3[nH]cc([C@H](C)c4c(OC)ccc(F)c4Cl)c3c2)cnn1CC(C)(C)O [Example 11, 1-(4-{3-[(1S)-1-(2-Chloro-3-fluoro-6-methoxyphenyl)ethyl]-1H-pyrrolo[2,3-b]pyridin-5-yl}-5-ethyl-1H-pyrazol-1-yl)-2-methylpropan-2-ol]
	50 to 200 nM	200 to 1000 nM	Cc1c(-c2cnc3[nH]cc(C(C#N)c4c(Cl)ccc(F)c4Cl)c3c2)cnn1[C@H]1CC[C@H](O)CC1 (stereo partly drawn) [Example 108, (2,6-Dichloro-3-fluorophenyl){5-[1-(trans-4-hydroxycyclohexyl)-5-methyl-1H-pyrazol-4-yl]-1H-pyrrolo[2,3-b]pyridin-3-yl}acetonitrile]
	50 to 200 nM	50 to 200 nM	COc1ccc(F)c(Cl)c1[C@@H](C)c1c[nH]c2ncc(-c3cn(C)nc3CO)cc12 [Example 42, (4-{3-[(1S)-1-(2-Chloro-3-fluoro-6-methoxyphenyl)ethyl]-1H-pyrrolo[2,3-b]pyridin-5-yl}-1-methyl-1H-pyrazol-3-yl)methanol]
	200 to 1000 nM	50 to 200 nM	COc1ccc(F)c(Cl)c1[C@@H](C)c1c[nH]c2ncc(-c3c(C)nn(C)c3C)cc12 [Example 4, 3-[(1S)-1-(2-Chloro-3-fluoro-6-methoxyphenyl)ethyl]-5-(1,3,5-trimethyl-1H-pyrazol-4-yl)-1H-pyrrolo[2,3-b]pyridine]
	≤ 50 nM	≤ 50 nM	Cc1nn(C[C@H](O)CO)cc1-c1cnc2[nH]cc([C@H](C)c3c(OC(F)F)ccc(F)c3Cl)c2c1 [Example 71, (2S)-3-[4-(3-{(1S)-1-[2-Chloro-6-(difluoromethoxy)-3-fluorophenyl]ethyl}-1H-pyrrolo[2,3-b]pyridin-5-yl)-3-methyl-1H-pyrazol-1-yl]propane-1,2-diol]
	≤ 50 nM	≤ 50 nM	COc1ccc(F)c(Cl)c1[C@@H](C)c1c[nH]c2ncc(-c3cnn([C@@H]4C[C@@H](O)[C@@H](O)C4)c3C)cc12 [Example 31, (1R,2S,4S)-4-(4-{3-[(1S)-1-(2-Chloro-3-fluoro-6-methoxyphenyl)ethyl]-1H-pyrrolo[2,3-b]pyridin-5-yl}-5-methyl-1H-pyrazol-1-yl)cyclopentane-1,2-diol]
